Data as given in the Kinase Knowledgebase extract (Sharma et al. 2016).

The compounds below were run against PIK3CA (human) (UniProt P42336) (assay: Inhibition of PIK3CA Kinase Activity).
PIK3CA (human), sequence (P42336 whole entry, looked up): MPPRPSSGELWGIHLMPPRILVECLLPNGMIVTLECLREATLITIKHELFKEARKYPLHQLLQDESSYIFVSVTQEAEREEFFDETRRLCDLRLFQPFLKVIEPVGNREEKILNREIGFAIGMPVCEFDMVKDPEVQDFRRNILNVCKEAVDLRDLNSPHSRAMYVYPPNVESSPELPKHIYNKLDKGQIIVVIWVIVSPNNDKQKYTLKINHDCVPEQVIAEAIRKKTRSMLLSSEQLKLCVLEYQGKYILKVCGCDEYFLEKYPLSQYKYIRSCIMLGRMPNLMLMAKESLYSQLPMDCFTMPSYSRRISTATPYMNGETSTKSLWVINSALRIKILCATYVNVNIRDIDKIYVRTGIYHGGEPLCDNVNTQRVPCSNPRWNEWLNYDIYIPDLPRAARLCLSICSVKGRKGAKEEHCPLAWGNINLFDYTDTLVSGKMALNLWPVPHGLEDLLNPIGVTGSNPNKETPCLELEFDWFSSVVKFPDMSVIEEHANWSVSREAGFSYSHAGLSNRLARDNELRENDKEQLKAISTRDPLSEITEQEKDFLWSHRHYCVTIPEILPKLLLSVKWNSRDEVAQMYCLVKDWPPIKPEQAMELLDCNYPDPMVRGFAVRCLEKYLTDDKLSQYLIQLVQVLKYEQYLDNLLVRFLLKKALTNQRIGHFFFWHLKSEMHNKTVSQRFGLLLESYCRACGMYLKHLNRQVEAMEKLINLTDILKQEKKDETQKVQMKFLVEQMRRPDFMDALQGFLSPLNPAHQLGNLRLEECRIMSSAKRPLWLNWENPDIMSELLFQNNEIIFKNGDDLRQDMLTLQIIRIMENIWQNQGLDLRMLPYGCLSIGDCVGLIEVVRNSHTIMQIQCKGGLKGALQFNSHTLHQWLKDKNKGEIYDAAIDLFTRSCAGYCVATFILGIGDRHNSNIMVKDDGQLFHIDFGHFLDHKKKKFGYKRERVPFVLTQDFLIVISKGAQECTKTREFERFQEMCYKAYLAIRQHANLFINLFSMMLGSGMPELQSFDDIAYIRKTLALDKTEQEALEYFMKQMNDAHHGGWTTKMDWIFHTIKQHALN

IC50	SMILES
10 to 50 nM	Cc1nc2cc(-c3ccc4c(c3)CN(c3nc([C@H]5CCCN5)nc5c3CC(C)(C)CC5)CCO4)ccc2[nH]1
10 to 50 nM	C[C@H](CO)CS(=O)(=O)c1cc(-c2ccc3c(c2)CN(c2ncnc4c2CC(C)(C)CC4)CCO3)cnc1N
10 to 50 nM	CC1=C(C)C(C)(C)Cc2c1ncnc2N1CCOc2ccc(-c3cnc4nc(C)[nH]c4c3)cc2C1
250 to 1000 nM	Cc1nc2ncc(-c3ccc4c(c3)CN(c3ncnc5c3CC(F)(F)CC5)CCO4)cc2[nH]1
10 to 50 nM	c1ccc2c(N3CCOc4ccc(-c5ccc6nc[nH]c6c5)cc4C3)ncnc2c1
10 to 50 nM	Cc1nc(N2CCOc3ccc(-c4ccc5nc(C)[nH]c5c4)cc3C2)c2ccccc2n1
50 to 250 nM	CCCc1nc2cc(-c3ccc4c(c3)CN(c3ncnc5c3CC(C)(C)CC5)CCO4)cnc2[nH]1
10 to 50 nM	CC[C@H]1CCc2c(ncnc2N2CCOc3ccc(-c4cnc(N)c(S(=O)(=O)N5CC[C@@H](N)C5)c4)cc3C2)C1
250 to 1000 nM	COc1ccc2nc(Cl)nc(N3CCOc4ccc(-c5ccc6nc(C)[nH]c6c5)cc4C3)c2c1
≤ 10 nM	COCCc1c(C)nc(CN(C)C)nc1N1CCOc2ccc(-c3ccc4nc(C)[nH]c4c3)cc2C1
≤ 10 nM	CCNc1nc2ccc(-c3ccc4c(c3)CN(c3nc(CC)nc5cc(OC)ccc35)CCO4)cc2[nH]1
10 to 50 nM	CN(C)c1ncc(-c2ccc3c(c2)CN(c2ncnc4c2CC(C)(C)CC4)CCO3)cc1NS(C)(=O)=O
10 to 50 nM	CC(C)(O)CNS(=O)(=O)c1cc(-c2ccc3c(c2)CN(c2ncnc4c2CC(C)(C)CC4)CCO3)cnc1N
≤ 10 nM	CCc1c(C)nc(CN(C)C)nc1N1CCOc2ccc(-c3cnc4[nH]c(C)nc4c3)cc2C1
10 to 50 nM	COc1ccc(-c2ccc3c(c2)CN(c2nc(CN(C)C)nc(C)c2C(C)C)CCO3)cc1NS(C)(=O)=O
10 to 50 nM	CC1(C)CCc2ncnc(N3CCOc4ccc(-c5cnc6[nH]c(C7CC7)nc6c5)cc4C3)c2C1
10 to 50 nM	CCC1CCc2ncnc(N3CCOc4ccc(-c5cnc6nc(C)[nH]c6c5)cc4C3)c2C1 (stereo unspecified)
10 to 50 nM	COCCNCc1nc2c(c(N3CCOc4ccc(-c5ccc6nc(C)[nH]c6c5)cc4C3)n1)CC(C)(C)CC2
50 to 250 nM	Cc1cccc(Cl)c1S(=O)(=O)Nc1cc(-c2ccc3c(c2)CN(c2ncnc4c2CC(C)(C)CC4)CCO3)cnc1Cl
10 to 50 nM	Cc1nc2cc(-c3ccc4c(c3)CN(c3nc(CN5CCCC5)nc(C)c3C(C)C)CCO4)ccc2[nH]1
10 to 50 nM	Cc1nc(C)c(C(C)C)c(N2CCOc3ccc(-c4cnc5nc(C)[nH]c5c4)cc3C2)n1
≤ 10 nM	Cc1nc(CN(C)C)nc(N2CCOc3ccc(-c4cnc5sc(N)nc5c4)cc3C2)c1CC1CC1

IC50	SMILES
10 to 50 nM	CN(C)Cc1nc2c(c(N3CCOc4ccc(-c5ccc6[nH]c(C(F)F)nc6c5)cc4C3)n1)CC(C)(C)CC2
50 to 250 nM	COc1ccccc1Cc1c(C)ncnc1N1CCOc2ccc(-c3ccc4nc(C)[nH]c4c3)cc2C1
50 to 250 nM	CC1(C)CCc2ncnc(N3CCOc4ccc(-c5cnc(N)c(S(=O)(=O)NC6CCNCC6)c5)cc4C3)c2C1
50 to 250 nM	Cc1nc2ccc(-c3ccc4c(c3)CN(c3ncnc(C)c3CC3CC3)CCO4)cc2[nH]1
10 to 50 nM	CC1(C)CCc2ncnc(N3CCOc4ccc(-c5cnc(N)c(S(=O)(=O)N6CCC(N)CC6)c5)cc4C3)c2C1
250 to 1000 nM	CCCNC(=O)c1ccc(-c2ccc3c(c2)CN(c2ccnc4ccccc24)CCO3)cc1
≤ 10 nM	Cc1nc(CN(C)C)nc(N2CCOc3ccc(-c4cnc5sc(N)nc5c4)cc3C2)c1C
≤ 10 nM	CCNc1nc2ccc(-c3ccc4c(c3)CN(c3ccnc5cc(OC)ccc35)CCO4)cc2[nH]1
≤ 10 nM	Cc1nc2ncc(-c3ccc4c(c3)CN(c3nc(CN5CCCCC5)nc5c3CC(C)(C)CC5)CCO4)cc2[nH]1
10 to 50 nM	CCc1ncnc(N2CCOc3ccc(-c4ccc5nc(C)[nH]c5c4)cc3C2)c1Cc1ccccc1
250 to 1000 nM	Cc1c(NCC2CCN(C)CC2)ncnc1N1CCOc2ccc(-c3cnc4nc(C5CC5)[nH]c4c3)cc2C1
50 to 250 nM	COc1ccc2c(N3CCOc4ccc(-c5cnc(N)nc5)cc4C3)nc(C)nc2c1
≤ 10 nM	CCNc1nc2ccc(-c3ccc4c(c3)CN(c3nc(C)nc5cc(OC)ccc35)CCO4)cc2[nH]1
250 to 1000 nM	Cc1nc2cc(-c3ccc4c(c3)CN(c3nc(CN(C)C)nc(C)c3CC(C)C)CCO4)ccc2[nH]1
50 to 250 nM	CN1CCN(S(=O)(=O)c2cc(-c3ccc4c(c3)CN(c3ncnc5c3CC(C)(C)CC5)CCO4)cnc2N)CC1
≤ 10 nM	C=CCc1c(C)nc(CN(C)C)nc1N1CCOc2ccc(-c3cnc4sc(N)nc4c3)cc2C1
50 to 250 nM	CN1CC[C@@H](NS(=O)(=O)c2cc(-c3ccc4c(c3)CN(c3ncnc5c3CC(C)(C)CC5)CCO4)cnc2N)C1
≤ 10 nM	COC(=O)Nc1nc2ncc(-c3ccc4c(c3)CN(c3ncnc5c3CC(C)(C)CC5)CCO4)cc2[nH]1
10 to 50 nM	Cc1nc2ncc(-c3ccc4c(c3)CN(c3nc(CNC5CC5)nc5c3CC(C)(C)CC5)CCO4)cc2[nH]1
≤ 10 nM	Cc1nc2ccc(-c3ccc4c(c3)CN(c3ccnc5cc(F)ccc35)CCO4)cc2[nH]1
250 to 1000 nM	COC1Cc2nc(CN(C)C)nc(N3CCOc4ccc(-c5ccc6scnc6c5)cc4C3)c2CC1(C)C (stereo unspecified)
10 to 50 nM	Cc1ncnc(N2CCOc3ccc(-c4ccc5[nH]c(NCCF)nc5c4)cc3C2)c1Cc1ccc(F)cc1

IC50	SMILES
250 to 1000 nM	Cc1ncnc(N2CCOc3ccc(-c4ccc5nc(N)ncc5c4)cc3C2)c1Cc1ccc(F)cc1
10 to 50 nM	CC1(C)CCc2ncnc(N3CCOc4ccc(-c5cnc(N)c(S(=O)(=O)N6CC7(CNC7)C6)c5)cc4C3)c2C1
250 to 1000 nM	Cc1c(N2CCOc3ccc(-c4cnc5nc(C6CC6)[nH]c5c4)cc3C2)ncnc1N(C)[C@@H](C)c1ccccc1
50 to 250 nM	CCNc1nc2ccc(-c3ccc4c(c3)CN(c3nc(NC)nc5ccccc35)CCO4)cc2[nH]1
50 to 250 nM	Cc1nc2ccc(-c3ccc4c(c3)CN(c3ncnc5cc(S(C)(=O)=O)ccc35)CCO4)cc2[nH]1
10 to 50 nM	Cc1nc2ccc(-c3ccc4c(c3)CN(c3ncnc(C)c3Cc3ccccc3)CCO4)cc2[nH]1
50 to 250 nM	Cc1nc2ncc(-c3ccc4c(c3)CN(c3ncnc(Cl)c3C)CCO4)cc2[nH]1
10 to 50 nM	CC1(C)CCc2ncnc(N3CCOc4ccc(-c5cnc(N)c(S(=O)(=O)N6C[C@@H]7C[C@H]6CN7)c5)cc4C3)c2C1
10 to 50 nM	Cc1nc2ccc(-c3ccc4c(c3)CN(c3ncnc5c3CCC(C)C5)CCO4)cc2[nH]1 (stereo unspecified)
250 to 1000 nM	Cc1nc2ccc(-c3ccc4c(c3)CN(c3ncnc5c(Cl)cc(Cl)cc35)CCO4)cc2[nH]1
250 to 1000 nM	Cc1ncc(-c2ccc3c(c2)CN(c2ncnc4c2CCC(C)(C)C4)CCO3)s1
250 to 1000 nM	CC1(C)CCc2ncnc(N3CCOc4ccc(-c5cnc(Cl)c(S(=O)(=O)N6CC[C@H](N)C6)c5)cc4C3)c2C1
250 to 1000 nM	CC1(C)CCc2ncnc(N3CCOc4ccc(-c5cnc(C(N)=O)c(N)c5)cc4C3)c2C1
10 to 50 nM	Cc1nc2cc(-c3ccc4c(c3)CN(c3nc([C@@H]5CCCN5)nc5c3CC(C)(C)CC5)CCO4)cnc2[nH]1
50 to 250 nM	CC(C)(CO)CNS(=O)(=O)c1cc(-c2ccc3c(c2)CN(c2ncnc4c2CC(C)(C)CC4)CCO3)cnc1N
50 to 250 nM	Cc1nc2ccc(-c3ccc4c(c3)CN(c3ncnc5c(F)cccc35)CCO4)cc2[nH]1
10 to 50 nM	COc1ccc(-c2ccc3c(c2)CN(c2nc(CN(C)C)nc4c2CC(C)(C)CC4)CCO3)cc1OC(F)F
250 to 1000 nM	Cc1nc2ccc(-c3ccc4c(c3)CN(c3ccncn3)CCO4)cc2[nH]1
10 to 50 nM	CC1(C)CCc2ncnc(N3CCOc4ccc(-c5ccc6[nH]c(C(F)F)nc6c5)cc4C3)c2C1
50 to 250 nM	Cc1nc2cc(-c3ccc4c(c3)CN(c3nc(CN(C)C)nc5c3CC(C)(C)CC5)CCO4)c(F)cc2[nH]1
50 to 250 nM	COc1ccc2ncnc(N3CCOc4ccc(-c5ccc6nc(C)[nH]c6c5)cc4C3)c2c1
50 to 250 nM	Cc1nc2ncc(-c3ccc4c(c3)CN(c3ncnc5c3C[C@H](C)[C@@H](C)C5)CCO4)cc2[nH]1

IC50	SMILES
≤ 10 nM	CN(CCO)S(=O)(=O)c1cc(-c2ccc3c(c2)CN(c2ncnc4c2CC(C)(C)CC4)CCO3)cnc1N
250 to 1000 nM	CN(C)Cc1nc2c(c(N3CCOc4ccc(-c5ccc(Cl)c(C(N)=O)c5)cc4C3)n1)CC(C)(C)CC2
10 to 50 nM	CC1(C)CCc2ncnc(N3CCOc4ccc(-c5cnc(N)c(S(=O)(=O)N[C@@H]6CCNC6)c5)cc4C3)c2C1
10 to 50 nM	CNS(=O)(=O)c1cc(-c2ccc3c(c2)CN(c2ncnc4c2CC(C)(C)C=C4)CCO3)cnc1N
10 to 50 nM	COc1ccc2c(N3CCOc4ccc(-c5cnc(N)c([S+]([O-])C[C@@H](C)CO)c5)cc4C3)ncnc2c1 (stereo partly specified)
10 to 50 nM	Cc1nc2ncc(-c3ccc4c(c3)CN(c3ncnc5c3CCC(C(C)O)C5)CCO4)cc2[nH]1 (stereo unspecified)
≤ 10 nM	COc1ccc2c(N3CCOc4ccc(-c5cnc(N)c(S(=O)(=O)N6CC[C@H](N)C6)c5)cc4C3)ncnc2c1
≤ 10 nM	Cc1nc2ccc(-c3ccc4c(c3)CN(c3ccnc(C)c3Cc3cccc(F)c3)CCO4)cc2[nH]1
50 to 250 nM	CC1(C)CCc2ncnc(N3CCOc4ccc(-c5cnc(N)c(S(=O)(=O)NCC6(N)CC6)c5)cc4C3)c2C1
≤ 10 nM	Cc1nc2ncc(-c3ccc4c(c3)CN(c3nc(CN)nc5c3CC(C)(C)CC5)CCO4)cc2[nH]1
10 to 50 nM	CNC1CN(S(=O)(=O)c2cc(-c3ccc4c(c3)CN(c3ncnc5c3CC(C)(C)CC5)CCO4)cnc2N)C1
250 to 1000 nM	COc1c(OCCN(C)C)ccc2c(N3CCOc4ccc(-c5ccc6nc(C)[nH]c6c5)cc4C3)ncnc12
10 to 50 nM	CNc1ncnc(N2CCOc3ccc(-c4cnc5nc(C)[nH]c5c4)cc3C2)c1C
≤ 10 nM	CC[C@H]1CCc2c(nc(CN(C)C)nc2N2CCOc3ccc(-c4cnc5nc(C)[nH]c5c4)cc3C2)C1
10 to 50 nM	CC1(C)CCc2ncnc(N3CCOc4ccc(-c5cnc(N)c(S(=O)(=O)NC6CCC6)c5)cc4C3)c2C1
10 to 50 nM	COc1ccc(-c2ccc3c(c2)CN(c2nc(CN(C)C)nc4c2CC(C)(C)CC4)CCO3)cc1OC
10 to 50 nM	CCc1c(C)nc(CN(C)C)nc1N1CCOc2ccc(-c3ccc4[nH]c(C)nc4c3)cc2C1
10 to 50 nM	Cc1nc2ncc(-c3ccc4c(c3)CN(c3ncnc5c3CC(C)CC5)CCO4)cc2[nH]1 (stereo unspecified)
50 to 250 nM	Cc1nc2c(c(N3CCOc4ccc(-c5cnc(N)c(S(=O)(=O)NCC6CCN(C)CC6)c5)cc4C3)n1)CC(C)(C)CC2
250 to 1000 nM	Cc1nc2ccc(-c3ccc4c(c3)CN(c3ncnc5ccc(OCCCN(C)C)cc35)CCO4)cc2[nH]1
